From BindingDB's records for doi:10.1111/j.1747-0285.2009.00909.x (Queen's University, 2010)
Values joined by “and” are separate entries in the source; they are usually repeats but may differ in a detail not shown here. Equal values may be shown once.

Key:
Heme oxygenase 1 = target: T1, Heme oxygenase 1 (Rattus norvegicus, UniProt P06762); assay: Heme Oxygenase; settings: pH 7.4; 25 °C
T1 sequence (P06762 whole entry): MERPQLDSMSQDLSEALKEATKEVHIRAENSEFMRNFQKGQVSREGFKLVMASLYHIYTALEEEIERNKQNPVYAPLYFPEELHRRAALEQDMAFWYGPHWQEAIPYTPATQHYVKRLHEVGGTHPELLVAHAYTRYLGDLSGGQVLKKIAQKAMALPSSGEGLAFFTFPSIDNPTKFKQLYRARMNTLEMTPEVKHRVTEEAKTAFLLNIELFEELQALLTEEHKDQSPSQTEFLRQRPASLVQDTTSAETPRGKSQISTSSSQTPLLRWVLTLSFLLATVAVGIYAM
Procedure: (§1) Heme oxygenase activity in rat spleen and brain microsomal fractions was determined by the quantitation of CO formed from the degradation of methemalbumin (heme complexed with albumin). Spleen and brain (SpragueâDawley rats) microsomal fractions were prepared according to the procedure outlined by Appletonet al. Protein concentration of microsomal fractions was determined by a modification of the Biuret method. Incubations for HO activity analysis were performed under conditions for which the rate of CO formation [pmol CO â (min mg protein)] was linear with respect to time and microsomal protein concentration. […] […]

Heme oxygenase 2 = target: T2, Heme oxygenase 2 (Rattus norvegicus, UniProt P23711); assay: Heme Oxygenase; settings: pH 7.4; 25 °C
T2 sequence (P23711 whole entry): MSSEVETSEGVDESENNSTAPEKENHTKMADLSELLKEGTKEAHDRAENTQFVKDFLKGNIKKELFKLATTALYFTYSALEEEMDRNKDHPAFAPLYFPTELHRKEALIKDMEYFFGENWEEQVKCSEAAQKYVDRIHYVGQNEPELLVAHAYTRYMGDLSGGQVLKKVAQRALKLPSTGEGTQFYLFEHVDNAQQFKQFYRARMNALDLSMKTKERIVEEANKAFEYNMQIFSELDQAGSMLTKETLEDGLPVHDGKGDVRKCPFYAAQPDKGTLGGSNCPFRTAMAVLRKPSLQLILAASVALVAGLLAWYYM
Procedure: as §1

Row | Structure (SMILES) | IC50 (Heme oxygenase 1) [µM] | IC50 (Heme oxygenase 2)
1 | OC(CCc1ccccc1)Cn1ccnc1 (stereo not drawn) | 6 | 
2 | O=C(CCc1ccccc1)Cn1cccn1 [1-azolyl-4-phenyl-2-butanone, 5] | > 100 | > 100 µM
3 | O=C(CCc1ccccc1)Cn1ccnn1 [1-azolyl-4-phenyl-2-butanone, 8] | 89 | > 100 µM
4 | O=C(CCc1ccccc1)Cn1nccn1 [1-azolyl-4-phenyl-2-butanone, 9] | > 100 | > 100 µM
5 | O=C(CCc1ccccc1)Cn1ncnn1 [1-azolyl-4-phenyl-2-butanone, 11] |  | 30 µM and > 100 µM
6 | O=C(CCc1ccccc1)Cn1nc2ccccc2n1 [1-azolyl-4-phenyl-2-butanone, 14] | > 100 | > 100 µM
7 | Cc1nccn1CC(=O)CCc1ccccc1 [1-azolyl-4-phenyl-2-butanone, 15] | > 100 | > 100 µM
8 | O=C(CCc1ccccc1)Cn1ccnc1-c1ccccc1 [1-azolyl-4-phenyl-2-butanone, 16] | > 100 | > 100 µM
9 | O=C(CCc1ccccc1)Cn1cnc(Cl)c1Cl [1-azolyl-4-phenyl-2-butanone, 20] | > 100 | > 100 µM
10 | O=C(CCc1ccccc1)Cn1cnc(-c2ccccc2)c1-c1ccccc1 [1-azolyl-4-phenyl-2-butanone, 21] |  | > 100 µM
11 | O=C(CCc1ccccc1)Cn1cnc(-c2ccccc2)c1 [1-azolyl-4-phenyl-2-butanone, 24] |  | > 100 µM
12 | O=C(CCc1ccccc1)Cn1cnc(Br)c1 [1-azolyl-4-phenyl-2-butanone, 25] | > 100 | > 100 µM
13 | O=C(CCc1ccccc1)Cn1cnc(N(O)O)c1 [1-azolyl-4-phenyl-2-butanone, 26] | > 100 | > 100 µM
14 | CSc1ncn(CC(=O)CCc2ccccc2)n1 [1-azolyl-4-phenyl-2-butanone, 31] | > 100 | > 100 µM
15 | O=C(CCc1ccccc1)Cn1cnc(N(O)O)n1 [1-azolyl-4-phenyl-2-butanone, 32] | > 100 | > 100 µM
16 | CSc1ncnn1CC(=O)CCc1ccccc1 [1-azolyl-4-phenyl-2-butanone, 35] | > 100 | > 100 µM
17 | O=C(CCc1ccccc1)Cn1nc(Br)nc1Br [1-azolyl-4-phenyl-2-butanone, 36] | > 100 | > 100 µM
18 | CSc1nnnn1CC(=O)CCc1ccccc1 [1-azolyl-4-phenyl-2-butanone, 38] | > 100 | > 100 µM
19 | O=C(CCc1ccccc1)Cn1nnnc1-c1ccccc1 [1-azolyl-4-phenyl-2-butanone, 40] | > 100 | > 100 µM
20 | CSc1nnn(CC(=O)CCc2ccccc2)n1 [1-azolyl-4-phenyl-2-butanone, 41] | > 100 | > 100 µM
21 | COOSc1ncnn1CC(=O)CCc1ccccc1 [1-azolyl-4-phenyl-2-butanone, 46] | > 100 | > 100 µM
